Laboratory results reported in patent EP0298385A2, “Cyctostatic anthracyclin derivatives” (BEHRINGWERKE Aktiengesellschaft, priority 1987, dated 1989).
Converted amounts (≈) assume the structure as drawn. Where two headings read alike, the source gives them in different places.

Columns and labels:
[1] = Stability / hydrolysis of the spacer-bearing anthracyclines in phosphate-buffered saline, HPLC analysis; format: physicochemical
Experimental: Die jeweilige Verbindung wurde bei einer Konzentration von 1 mg/ml in Acetonitril gelöst und mit Phosphat-gepufferter Kochsalzlösung pH 7.2 im Volumenverhältnis 1:100 verdünnt, wobei eine Konzentration von jeweils 10 µg/ml erhalten wurde. Diese Lösungen wurden jeweils bei 37 °C im Dunkeln inkubiert und 20 µl-Aliquote wurden nach definierten Zeiten mittels der HPLC-Technik untersucht. Die Stabilitäten dieser Verbindungen sind in Fig. 1 graphisch dargestellt.
Verbindung 10 wurde, wie vorstehend beschrieben, unrersucht und mittels HPLC-Technik analysiert.
Verbindung 12 wurde analog zu Verbindung 10 hydrolysiert, wobei jedoch ein pH-Wert von 7,4 verwendet wurde.

L1210 Leukämiezellen = assay: Colony formation of L1210 leukemia cells in soft agar (cytotoxicity in vitro); format: cell-based, Maus; settings: for IC50: Mus musculus
Text: Die zytostatische Wirksamkeit der erfindungsgemäßen Verbindungen wurde anhand von L1210 Leukämiezellen der Maus getestet. Hierzu wurde die Koloniebildung von L1210 Leukämiezellen in Agarplatten herangezogen. Diese Methode dient zum Nachweis des Einflusses der Testsubstanzen auf das Wachstumsverhalten der Zellen über 1 Stunde oder über mehrere Generationen. Bei einer Zellzykluszeit von 10-12 Stunden werden dabei in der Testzeit von 7 Tagen etwa 14 aufeinanderfolgende Generationen beobachtet. Die erfindungsgemäßen zytostatisch wirksamen Substanzen bewirken in diesem Test eine Reduktion der zu beobachtenden Koloniezahl gegenüber einer unbehandelten Kontrollprobe.
Verfahrensweise zur Ermittlung der Koloniebildung von L1210 Leukämiezellen in Soft-Agar
500 Leukämiezellen pro Platte wurden mit unterschiedlichen Konzentrationen der Testsubstanz 1 Stunde bei 37°C inkubiert. Anschließend wurden die Zellen zweimal mit McCoy5A-Medium gewaschen und schließlich in Petrischalen nach Zugabe von 0,3 % Agar ausgegossen. Kontrollen wurden lediglich mit frischem Medium inkubiert. Anstelle der einstündigen Inkubation wurden in manchen Fällen unterschiedliche Konzentrationen der Testsubstanzen der oberen Agarschicht zugemischt, um so eine kontinuierliche Exposition der Zellen über die gesamte Inkubationszeit zu erreichen. Nach Erstarren des Agars wurden die Platten im Brutschrank 7 Tage bei 37°C inkubiert (5 Vol. -% CO₂, 95 % relative Luftfeuchtigkeit). Anschließend wurde die Zahl der entstandenen Kolonien mit einem Durchmesser von mehr als 60 µm gezählt. Die Ergebnisse wurden angegeben als Koloniezahl in behandelten Agarplatten in Prozent der unbehandelten Kontrolle. Aus der so erhaltenen Dosiswirkungskurve wurde die IC₅₀ als Maß für die Wirksamkeit der Substanz ermittelt. Die Ergebnisse für die hier beschriebenen Verbindungen im Vergleich zu Adriamycin sind in der nachfolgenden Tabelle 1 zusammengefaßt.
Die Struktur der hergestellten Verbindungen wurde mittels ¹H-NMR- Spektroskopie, UV-Spektroskopie und HPLC-Technik ermittelt. Der Verlauf der Reaktionen wurde, soweit möglich, dünnschichtchromatographisch auf Kieselgel-Fertigplatten verfolgt. Die Ergebnisse der Zytotoxizitäts-Testung gegen L1210-Zellen in vitro sind in Tabelle 1 zusammengefaßt. Tabelle 1

[2] = 1 h incubation at 37°C, then washed, colonies counted after 7 days
[3] = continuous exposure in agar, 7 days at 37°C, not differentiated by possible hydrolysis products (footnote a)
[4] = 10 µg/ml in phosphate-buffered saline pH 7.2, 37 °C, dark, releases β-Rhodomycin-I directly and via an intermediate

Molecule	Hydrolyse ([1]; as for Verbindung 10 but pH 7,4, 37 °C)	IC₅₀-Werte gegenüber L1210-Zellen in vitro, 1h-Inkubation (L1210 Leukämiezellen; [2])	IC₅₀-Werte gegenüber L1210-Zellen in vitro, Dauerinkubation (L1210 Leukämiezellen; [3])	IC50 (L1210 Leukämiezellen; L1210, 168 h, continuous exposure in agar, 7 days at 37°C, not differentiated by possible hydrolysis products (footnote a), read-out: IC₅₀-Werte gegenüber L1210-Zellen in vitro, Dauerinkubation)	IC50 (L1210 Leukämiezellen; L1210, 1 h incubation at 37°C, then washed, colonies counted after 7 days, read-out: IC₅₀-Werte gegenüber L1210-Zellen in vitro, 1h-Inkubation)	Hydrolyse [1, 4]
4˝-O-(4-Maleimidobenzoyl)-cytorhodin-S [Verbindung 12]	analoges Hydrolyseverhalten	0,0095 µg/ml	0,0028 µg/ml			
COc1cccc2c1C(=O)c1c(O)c3c(c(O)c1C2=O)C[C@@](O)(C(=O)CO)C[C@@H]3O[C@H]1C[C@H](N)[C@H](O)[C@H](C)O1 [Adriamycin, reference compound]				0.02 µg/mL (≈ 0.0368 µM)	0.04 µg/mL (≈ 0.0736 µM)	
CC[C@@]1(O)C[C@H](O[C@H]2C[C@H](N(C)C)[C@H](O[C@H]3C[C@@H]4O[C@H]5CC(=O)[C@H](C)O[C@H]5O[C@@H]4[C@H](C)O3)[C@H](C)O2)c2c(O)c3c(c(O)c2[C@H]1O[C@H]1C[C@H](N(C)C)[C@H](O)[C@H](C)O1)C(=O)c1cccc(O)c1C3=O [Cytorhodin-S, reference compound]		0,013 µg/ml	0,003 µg/ml			
CC[C@@]1(O)C[C@H](O[C@H]2C[C@H](N(C)C)[C@H](OC(=O)c3ccc(N4C(=O)C=CC4=O)cc3)[C@H](C)O2)c2c(O)c3c(c(O)c2[C@H]1O)C(=O)c1cccc(O)c1C3=O [Verbindung 8]		0,5 µg/ml	0,11 µg/ml			analoges Hydrolyseverhalten
CCC1(O)CC(OC2CC(N(C)C)C(OC(=O)c3ccc(N4C(=O)C=CC4=O)cc3OC(C)=O)C(C)O2)c2c(O)c3c(c(O)c2C1O)C(=O)c1cccc(O)c1C3=O [Verbindung 10, 7-O-[4′-O-(2-Acetoxy-4-maleimidobenzoyl)-α-L-rhodosaminyl]-β-rhodomycinon]						hydrolytisch zersetzt
CC[C@@]1(O)C[C@H](O[C@H]2C[C@H](N(C)C)[C@H](OC(=O)CCN3C(=O)C=CC3=O)[C@H](C)O2)c2c(O)c3c(c(O)c2[C@H]1O)C(=O)c1cccc(O)c1C3=O [Verbindung 11, 7-O-[4′-O-(3-Maleimidopropionyl)-α-L-rhodosaminyl]-βrhodomycinon]		0,11 µg/ml	0,028 µg/ml			analoges Hydrolyseverhalten
CC[C@@]1(O)C[C@H](O[C@H]2C[C@H](N(C)C)[C@H](O)[C@H](C)O2)c2c(O)c3c(c(O)c2[C@H]1O)C(=O)c1cccc(O)c1C3=O [β-Rhodomycin-I, 7-O-(α-L-Rhodosaminyl)-β-rhodomycinon, reference compound]		0,05 µg/ml	0,022 µg/ml			
